Cytotoxicity data for 74 compounds are collected here from ChEMBL document CHEMBL3507680, “University of Dundee, Gates Library screen for HepG2 cell viability”.

Each structure is given as a SMILES string.

The nature of this data set: Human HepG2 cell viability assay in 384 well format. It counts as toxicity, cell-based. Set-up: dose 125 nL, time 70.5 hour; cytotoxicity at 70.5 h: concentration not given beside the values. The following applies: HepG2 cells, read-out: Inhibition.
Consider `Cc1nc(C)n(CC2CCCN(CCCc3ccccc3)C2)n1` (centres undefined), for which the cytotoxicity at 70.5 h was found to be 4.81%.

Regarding `COc1cccc(CNC(=O)c2cccnc2SC(C)C)c1`, the cytotoxicity at 70.5 h is -5.9%.

`CC(NC(=O)Cn1cc(-c2ccccc2)cn1)C1CC1` (centres undefined): the cytotoxicity at 70.5 h is -6.64%.

On to `Cc1cc(C)c(CNC(=O)N2CCCC2c2cccc(F)c2)c(=O)[nH]1` (centres undefined), for which the cytotoxicity at 70.5 h was 26%.

With `c1cc(CNCC2CNc3ccnn3C2)cc(N2CCOCC2)n1` (centres undefined), the cytotoxicity at 70.5 h is -5.11%.

For `c1cc(CNCC2CNc3ccnn3C2)cc(OC2CCCC2)n1` (centres undefined), the cytotoxicity at 70.5 h is -5.92%.

Consider `Cc1cc(C)c(CNC(=O)N2CCCC2c2ccccn2)c(=O)[nH]1` (centres undefined), for which the cytotoxicity at 70.5 h is -6.29%.

Turning to `CCC(CC)NC(=O)Cn1cc(-c2ccccc2)cn1`, the cytotoxicity at 70.5 h was -2.71%.

Consider `COc1ccccc1OCCNC(=O)N1CCC(n2cncn2)CC1`, for which the cytotoxicity at 70.5 h was -4.48%.

For `CCOc1ncccc1CNC(=O)N1CCC(n2cncn2)CC1`, the cytotoxicity at 70.5 h is -0.329%.

As for `O=C1NCC(C(=O)Nc2ncc(Cc3cccc(F)c3)s2)N1` (centres undefined), the cytotoxicity at 70.5 h is -6.09%.

As to `CC(C)c1cc(NC(=O)CNC2CCCN(c3cccnn3)C2)on1` (centres undefined), the cytotoxicity at 70.5 h is 3.11%.

On to `Cc1nc(C)n(C2CCCN(C(=O)CCCNc3ncccn3)C2)n1` (centres undefined), for which the cytotoxicity at 70.5 h is -4.88%.

Consider `CCc1n[nH]c(C2CN(C(=O)CCn3ccccc3=O)CCO2)n1` (centres undefined), for which the cytotoxicity at 70.5 h is -2.35%.

Turning to `CN1CCCN(C(=O)NCCNc2cnccn2)CC1`, the cytotoxicity at 70.5 h is -3.22%.

Consider `COc1ccccc1CCNC(=O)N1CCC(n2cncn2)CC1`, for which the cytotoxicity at 70.5 h was -7.07%.

For the compound `CC(=O)N1CCCN(C(=O)NCCNc2cnccn2)CC1`, the cytotoxicity at 70.5 h was -2.47%.

With `Cc1nc(C)n(CC2CCCN(CCCOc3ccc(F)cc3)C2)n1` (centres undefined), the cytotoxicity at 70.5 h is -2.75%.

As to `Cc1ccn(-c2ccc(C(=O)N3CCCC(n4ccnc4)C3)cc2)n1` (centres undefined), the cytotoxicity at 70.5 h was -22.3%.

`Cn1nccc1C1CCN(CC(O)c2cccc(F)c2)CC1` (centres undefined): the cytotoxicity at 70.5 h is -8.37%.

Regarding `CN(C)c1ncccc1CNC(=O)N1CCCC1CN1CCCCC1` (centres undefined), the cytotoxicity at 70.5 h is -32%.

Consider `O=C(CN1CCN(C(=O)Cc2ccc3c(c2)OCCO3)CC1)NC1CC1`, for which the cytotoxicity at 70.5 h was -12.7%.

`c1ccc(Cn2cncn2)c(CNCC2CNc3ccnn3C2)c1` (centres undefined): the cytotoxicity at 70.5 h is -13.5%.

Consider `CC(=O)N1CCCN(C(=O)c2ccn(-c3cccc(Cl)c3)n2)CC1`, for which the cytotoxicity at 70.5 h is -26.5%.

In the case of `COc1ccc(C(=O)N2CCCCC2Cn2cccn2)c(F)c1` (centres undefined), the cytotoxicity at 70.5 h was -13.3%.

As to `CCn1ccnc1CN1CCOC(CNc2cccnn2)C1` (centres undefined), the cytotoxicity at 70.5 h is -9.35%.

With `Cc1cc(C(=O)NCc2ccnc(N(C)C)c2)c(C)o1`, the cytotoxicity at 70.5 h is -13.2%.

On to `O=C(NCCN1CCCCCC1=O)c1n[nH]c(=O)c2ccccc12`, for which the cytotoxicity at 70.5 h is -20.8%.

For `CN(C)c1ncccc1CNC(=O)N1CCCC1c1ccsc1` (centres undefined), the cytotoxicity at 70.5 h was -16.3%.

As to `O=C1OCCN1CCc1nc(-c2cc3c4c(c2)CC(=O)N4CCC3)cs1`, the cytotoxicity at 70.5 h was 10.6%.

Take `c1ccc(Cn2cccn2)c(CNCC2CNc3ccnn3C2)c1` (centres undefined): the cytotoxicity at 70.5 h is -11.7%.

Consider `O=C(c1ccn(-c2cccc(Cl)c2)n1)N1CCN(C2CC2)CC1`, for which the cytotoxicity at 70.5 h was -0.559%.

With `COc1ccc2cc(C(=O)N3CCCCC3CC(N)=O)[nH]c2c1` (centres undefined), the cytotoxicity at 70.5 h is -15.1%.

In the case of `Cc1cccc(-c2nc(CN3CCc4cnc(C)nc4C3)no2)c1`, the cytotoxicity at 70.5 h is -21.3%.

Consider `Cc1ncc2c(n1)CN(Cc1noc(C3CC3)n1)CC2`, for which the cytotoxicity at 70.5 h was found to be 15.6%.

Regarding `Cc1cc(C)n(C2CN(CC(O)c3ccc(F)cc3)C2)n1` (centres undefined), the cytotoxicity at 70.5 h was -10.7%.

In the case of `COc1ncccc1CNc1cc(N2CCCC2CO)ncn1` (centres undefined), the cytotoxicity at 70.5 h is -12%.

As to `Cc1cnc(CN2CCOC(CNc3cccnn3)C2)cn1` (centres undefined), the cytotoxicity at 70.5 h was -8.2%.

Turning to `CCN1CCC(NC(=O)CN2CCc3c(nc(C4CC4)n3C)C2)CC1`, the cytotoxicity at 70.5 h is -10.9%.

Turning to `c1ccc(Cn2ccnc2CN2CCCC2c2noc(C3CC3)n2)cc1` (centres undefined), the cytotoxicity at 70.5 h was 8.17%.

Turning to `O=C(NCC1CCSCC1)N(CCCO)C1CCc2ccccc21` (centres undefined), the cytotoxicity at 70.5 h is 24.2%.

In the case of `CC(C)c1noc(CCCC(=O)NC2CCS(=O)(=O)C2)n1` (centres undefined), the cytotoxicity at 70.5 h is -0.791%.

Take `CC(NC(=O)NCCCn1cncn1)c1ccccc1Cl` (centres undefined): the cytotoxicity at 70.5 h is -2.04%.

With `CC(C)c1noc(CCC(=O)NCC2CCOC2)n1` (centres undefined), the cytotoxicity at 70.5 h is -2.41%.

Regarding `COc1ccc(C)cc1C(C)NC(=O)NCCCn1cncn1` (centres undefined), the cytotoxicity at 70.5 h was -10.9%.

On to `NC(=O)CN1CCCN(C(=O)Cc2ccc(F)c(Br)c2)CC1`, for which the cytotoxicity at 70.5 h is -8.24%.

As for `O=C(NCCNC(=O)c1scnc1Cl)c1ccccc1`, the cytotoxicity at 70.5 h was -6.16%.

Consider `NC(=O)CN1CCCN(C(=O)Cc2ccc3c(c2)OCO3)CC1`, for which the cytotoxicity at 70.5 h is -2.14%.

Regarding `Cn1ncc(C(=O)N2CCCC(n3cccn3)C2)c1C1CC1` (centres undefined), the cytotoxicity at 70.5 h was -4.62%.

For `c1ccc(-c2nc(CN3CCOC(Cn4cccn4)C3)no2)cc1` (centres undefined), the cytotoxicity at 70.5 h turned out to be 2.47%.

Consider `CC(C)c1nnc2n1CCN(C(=O)c1ccc3cc[nH]c3c1)C2`, for which the cytotoxicity at 70.5 h is 2.26%.

Take `CCc1[nH]ncc1C(=O)N1CCCC(n2ccnc2C(C)C)C1` (centres undefined): the cytotoxicity at 70.5 h amounted to 1.64%.

On to `CC(C)c1nnc2n1CCN(C(=O)c1cccc(C(F)(F)F)c1)C2`, for which the cytotoxicity at 70.5 h came out at 6.51%.

Consider `c1ncn(CC2CN(Cc3noc(C4CC4)n3)CCO2)n1` (centres undefined), for which the cytotoxicity at 70.5 h worked out at 29.1%.

Take `CCc1ncc2c(n1)CN(CC(=O)Nc1nnc(C)s1)CC2`: the cytotoxicity at 70.5 h is -3.21%.

For `c1cnn(CC2CN(Cc3noc(C4CC4)n3)CCO2)c1` (centres undefined), the cytotoxicity at 70.5 h is -0.284%.

Take `COc1ccc(CN(C)CC(=O)NC2(C)CCS(=O)(=O)C2)cc1F` (centres undefined): the cytotoxicity at 70.5 h was -0.516%.

For `CCn1ccnc1CNCC1CCCN1c1cccnn1` (centres undefined), the cytotoxicity at 70.5 h worked out at 5.62%.

With `Cc1ncc2c(n1)CN(Cc1nc3ccccc3o1)CC2`, the cytotoxicity at 70.5 h amounted to 11.4%.

As to `CCc1cc(C(=O)N2CCC(Nc3ccc(C)nn3)CC2)sc1C`, the cytotoxicity at 70.5 h is -2.56%.

For `Cc1cc(CN2CCCC2c2noc(C)n2)no1` (centres undefined), the cytotoxicity at 70.5 h is 4.25%.

In the case of `Cn1ccnc1CN1CCCC1c1noc(C2CC2)n1` (centres undefined), the cytotoxicity at 70.5 h stood at 1.39%.

As to `OC(CN1CCOCC1)CN1CCc2c(ncn2C2CC2)C1` (centres undefined), the cytotoxicity at 70.5 h turned out to be 30.4%.

`Cc1cnc(CN(C)C2CCN(Cc3ccccc3C#N)C2)o1` (centres undefined): the cytotoxicity at 70.5 h is -5.36%.

In the case of `CCN1CCN(c2ccc(CNC(=O)c3ccc(Cl)o3)cn2)CC1`, the cytotoxicity at 70.5 h came out at 3.11%.

For `Cc1noc(C)c1C(=O)NCc1ccc(N2CCOC(C)C2)nc1` (centres undefined), the cytotoxicity at 70.5 h was found to be 4.56%.

Regarding `Cc1ccccc1CC(=O)N(C)C1CCN(c2ccccn2)CC1`, the cytotoxicity at 70.5 h turned out to be 25.2%.

As for `Cc1nnc(NC(=O)CN2CCCC(Cn3cncn3)C2)s1` (centres undefined), the cytotoxicity at 70.5 h was -1.69%.

Take `CCNc1cc2c(nn1)CCN(C(=O)c1cc3nc(C)ccc3o1)C2`: the cytotoxicity at 70.5 h amounted to 22.7%.

Consider `CCc1nccn1C1CCCN(C(=O)Cc2ccc(OC)c(F)c2)C1` (centres undefined), for which the cytotoxicity at 70.5 h amounted to 4.08%.

`CCc1nc(C2CCCN2C(=O)C2=COCC2)no1` (centres undefined): the cytotoxicity at 70.5 h came out at 6.98%.

In the case of `CN(CC(=O)Nc1ccc(Br)cn1)C(=O)Cc1ccc(O)cc1`, the cytotoxicity at 70.5 h was -1.46%.

On to `CCc1noc(C(C)N2CCOCC2)n1` (centres undefined), for which the cytotoxicity at 70.5 h turned out to be 3.88%.

In the case of `CCc1noc(C(C)N2CCC(N3CCCC3)CC2)n1` (centres undefined), the cytotoxicity at 70.5 h was 24.3%.
